Experimental data reported in patent US20240245703A1, “TOPICAL APPLICATION OF AGENTS TO REDUCE SUN SENSITIVITY AND IMPROVE TOPICAL PHOTODYNAMIC THERAPY” (Wright State University, priority 2021, published 2024).
Read-outs that look alike come from different tables or passages of the source.

How the values were obtained:
[1] = system: aSMase; assay: residual aSMase activity after treatment of PC12 cells with 10 micromolar agent; type: cell-based; details: from Table 1 residual aSMase activity
Procedure: The data were obtained in a cell-based study by adding 10 micromolar aliquots of the above agents to PC12 cells for the indicated amounts of time (usually 0.5, 6, or 24 hours). Cells were lysed and aSMase activity measured using [choline methyl-14C] sphingomyeline. The amount of aSMase activity following the treatment of the agent was compared to vehicle without any FIASM. […] The data for the listed compounds (n=276) is based on the publication by Kornhuber et al. 2008, including compounds number n=101 combined with an additional set of compounds (n=175) Kornhuber J, Muehlbacher M, Trapp S, Pechmann S, Friedl A, Reichel M, Mühle C, Terfloth L, Groemer T W, Spitzer G M, Liedl K R, Gulbins E, Tripal P. Identification of novel functional inhibitors of acid sphingomyelinase. PLOS One. 2011; 6 (8): e23852. doi: 10.1371/journal.pone.0023852. Epub 2011 Aug. 31. PMID: 21909365; PMCID: PMC3166082. The numbering of compounds is identical to the previous publication for the first 101 compounds. CID=PubChem Compound ID. Set: 1=experimental values from Kornhuber et al. 2008, 2=corrected experimental values of the previously published compounds; 3=newly investigated compounds, Acid/Base: 1=monobase, 2=monoacid, 3=bibase, 4=zwitter. Mean residual activity of ASM is given as % of the corresponding control values.

[2] = system: aSMase; details: cited from earlier work; for Residual ASM Activity: 10 micromolar, PC12 cells, % of corresponding control values; for residual aSMase activity after treatment: from Kornhuber et al. 2008
[3] = hairless mice, effect of propylene glycol; cited from earlier work
[4] = system: PDT-induced MVP release; assay: PDT-induced MVP release in skin and plasma of mice; type: in vivo
Procedure: Next, the role of PAF and aSMase in PDT-induced MVP release was assessed. […] Next, the ability of topical PDT to generate MVP in vivo in mice, and the role of aSMase in this process, was determined. […] Two approaches were used to determine if PDT-induced MVP involved aSMase.
The role of aSMase in PDT-mediated MVP release was evaluated in a murine system. For the data shown in FIG. 18, wild-type mice were treated with either sham, 100 μl of 5 mM IMIP, or 90% polyethylene glycol: 10% DMSO vehicle, or 1 μM TPA (as a positive control for MVP release), or PDT using 20 J/cm^2 blue light. Immediately following PDT, the treated areas were given vehicle or imipramine. At 4 hours post-treatment, the mice were euthanized and MVP were measured from duplicate 6-mm punch biopsies and plasma. The data are mean±SD fold increase in MVP normalized to tissue weight/plasma volume. * Denotes statistically significant (P<0.05) changes from sham; #statistically significant (P<0.05) changes from comparator denoted by line by two-way ANOVA; NS not statistically significant.
To confirm the role of aSMase in PDT-induced MVP generation, PDT effects were evaluated in the absence of aSMase was evaluated in a murine system. For the data shown in FIG. 19, wild-type or aSMase-deficient (Smpd1−/−) mice underwent sham or PDT using 20 J/cm^2 blue light. At 4 hours post-treatment, the mice were euthanized and MVP were measured from duplicate 6-mm punch biopsies and plasma. The data are mean±SD fold increase in MVP normalized to tissue weight/plasma volume. * Denotes statistically significant (P<0.05) changes from sham; NS not statistically significant.

[5] = system: PDT-induced immunosuppression; assay: contact hypersensitivity (CHS) to DNFB after PDT, ear thickness; type: in vivo, mice; details: aSMase-deficient (Smpd1-/-) mice, CPAF intraperitoneal
From the text: Five days later the mice underwent sensitization with the neoantigen DNFB. To test for local immunosuppression, DNFB was applied to the PDT-treated area. To test for systemic immunosuppression, the DNFB was applied to back skin at least 2 cm away from the PDT-treated area. Nine days later the mice underwent elicitation reactions to DNFB by application to one ear, with vehicle applied to the other ear. One day later the ear thickness was obtained as a measure of CHS reaction and compared to pre-treatment and vehicle-treated values. Some mice were treated with intraperitoneal CPAF as a positive control for systemic immunosuppression.
For the data shown in FIG. 20, wild-type mice either were injected intraperitoneally with 250 ng CPAF as a positive control for immunosuppression, underwent PDT using 10 J/cm^2 blue light, or received no treatment (SHAM). […] Five days later the mice underwent sensitization with DNFB in PDT-treated (local immunosuppression) or non-PDT-treated skin (systemic immunosuppression). Nine days later the mice underwent elicitation reactions to ears with ear thickness measured at 24 hours. For the data shown in FIG. 21, wild type and aSMase-deficient (Smpd1−/−) mice underwent treatment with CPAF or PDT followed by DNFB sensitization/elicitation reactions as in FIG. 20. The data are mean±SD values. * Denotes statistically significant (P<0.05) changes from sham treatment values using two-way ANOVA.

[6] = system: human fibroblasts which lack PAFRs; assay: MVP levels in human fibroblasts which lack PAFRs; type: cell-based; details: human fibroblasts lacking PAFRs, data not shown
[7] = system: HaCaT keratinocytes; assay: PDT (5-ALA + blue light) MVP release in HaCaT keratinocytes; type: cell-based, human; details: HaCaT
Procedure: PDT results in acute cellular destruction and inflammation and photosensitivity, as well as delayed immunosuppression. […] Thus, it was of further interest whether experimental PDT of HaCaT keratinocytes generated MVP in vitro. To that end, HaCaT cells were pretreated with 5-ALA alone, or blue light alone, or a 4 hour incubation of 5-ALA in the dark followed by various fluences of blue light, and MVP were measured in the supernatants at 4 hours post blue light. 100 nM CPAF and TPA were used as positive controls for MVP release.
For the data shown in FIG. 14, HaCaT keratinocytes were treated with sham (no treatment), 0.1% ethanol vehicle control (VEH), 100 nM TPA, 100 nM CPAF, 1 mM 5-ALA for 4 hours, or 5-ALA followed by various fluences (2.5-20 J/cm^2) of blue light or blue light alone. Levels of MVPs released into supernatants were measured at 4 hours. […] For the data shown in FIG. 15, human skin explants were treated with sham, 100 μL vehicle (90% ethanol+10% DMSO) (VEH), 1 μM TPA, 1 µM CPAF, 1 mM 5-ALA for 4 hours, blue light or 5-ALA+blue light at 20 J/cm^2. After four hours, duplicate 6-mm punch biopsies were obtained, weighed, and MVPs were measured. The data are the mean±SE from 3-4 separate experiments conducted in duplicate. * Denotes statistically significant (P <0.05) changes from sham values.
Supernatants were collected at 4 hours and MVP measured. The data are the mean±SE MVP fold change from sham-treated values. For the data shown in FIG. 17, human skin explants were treated as in FIG. 15, with the exception that in some experiments 100 μL of 5 mM IMIP was added post-PDT. MVP were measured in duplicate 6-mm punch biopsies obtained 4 hours post-treatment.

## CN(C)CCC=C1c2ccccc2CCc2ccccc21 [Amitriptyline]
[1]
  potency relative to imipramine: approximately three times more potent than imipramine
[2]; incubation time 0.5 h
  Residual ASM Activity: 11.7%
[2]
  residual aSMase activity after treatment: 11.7%
[3]
  absorption with propylene glycol: enhances absorption

## CCCCCCCCCCCCC/C=C/[C@@H](O)[C@H](CO)NC(C)=O [C-2 ceramide]
[4]; topical application, aSMase KO mice, data not shown
  MVP generation in aSMase KO mice: generates MVP in the aSMase KO mice

## CCCCCCCCCCCCCCCCOC[C@H](COP(=O)([O-])OCC[N+](C)(C)C)OC(=O)NC [CPAF, carbamoyl-PAF]
[5]
  immunosuppression in aSMase KO mice (CHS to DNFB): resulted in similar levels of immunosuppression in comparison to wild-type mice
[6]
  MVP levels in fibroblasts: robust increases in MVP levels in response to PDT but not the PAFR agonist CPAF

## NCC(=O)CCC(=O)O [Compound 5-ALA, 5-aminolevulinic acid]
[7]; 1 mM 5-ALA 4 hours then 2.5-20 J/cm^2 blue light, 4 h
  MVP generation, 5-ALA along with blue light (PDT): resulted in high levels of MVP generation in a dosage-dependent manner
[7]; 1 mM 5-ALA 4 hours without blue light
  MVP formation, 5-ALA alone: did not generate appreciate MVP formation

## CNCCCN1c2ccccc2CCc2ccccc21 [Desipramine]
[2]; incubation time 0.5 h
  Residual ASM Activity: 15.6%
[3]
  absorption with propylene glycol: enhances absorption

## CNCCC=C1c2ccccc2CCc2ccccc21 [Nortriptyline]
[2]; incubation time 0.5 h
  Residual ASM Activity: 13.3%
[3]
  absorption with propylene glycol: enhances absorption

## OCCN1CCN(CCCN2c3ccccc3Sc3ccc(Cl)cc32)CC1 [Perphenazine]
[2]; incubation time 0.5 h
  Residual ASM Activity: 20.1%

## CN1CCC(=C2c3ccccc3Sc3ccccc32)CC1 [Pimethixene]
[2]; incubation time 24 h
  Residual ASM Activity: 16.5%

## CCN(CC)C(C)CN1c2ccccc2Sc2ccccc21 (stereo not drawn) [Profenamine]
[2]; incubation time 0.5 h
  Residual ASM Activity: 29.7%

## CN(C)CCCN1c2ccccc2Sc2ccccc21 [Promazine]
[2]; incubation time 0.5 h
  Residual ASM Activity: 33.6%

## CC(CN1c2ccccc2Sc2ccccc21)N(C)C (stereo not drawn) [Promethazin]
[2]; incubation time 0.5 h
  Residual ASM Activity: 32.2%

## CNCCCC1c2ccccc2C=Cc2ccccc21 [Protriptyline]
[2]; incubation time 0.5 h
  Residual ASM Activity: 12.7%

## CN[C@H]1CC[C@@H](c2ccc(Cl)c(Cl)c2)c2ccccc21 [Sertraline]
[2]; incubation time 0.5 h
  Residual ASM Activity: 12.3%

## CCCCCCCCCCCCCC(=O)O[C@@H]1[C@@H](C)[C@@]2(O)[C@@H](C=C(CO)C[C@]3(O)C(=O)C(C)=C[C@@H]23)[C@@H]2C(C)(C)[C@]12OC(C)=O [TPA, 12-O-tetradecanoylphorbol-13-acetate]
[4]; wild-type mice, 1 μM TPA, positive control, 4 h
  MVP levels after topical TPA: resulted in increased levels of MVP

## CC/C(=C(\c1ccccc1)c1ccc(OCCN(C)C)cc1)c1ccccc1 [Tamoxifen]
[2]; incubation time 6 h
  Residual ASM Activity: 4.1%

## CC(C)(C)c1ccc(C(O)CCCN2CCC(C(O)(c3ccccc3)c3ccccc3)CC2)cc1 (stereo not drawn) [Terfenadine]
[2]; incubation time 0.5 h
  Residual ASM Activity: 21.8%

## CSc1ccc2c(c1)N(CCC1CCCCN1C)c1ccccc1S2 (stereo not drawn) [Thioridazin]
[2]; incubation time 6 h
  Residual ASM Activity: 10.4%

## C[C@H]1CC[C@]2(NC1)O[C@H]1C[C@H]3[C@@H]4CC[C@H]5C[C@@H](O)CC[C@]5(C)[C@H]4CC[C@]3(C)[C@H]1[C@@H]2C [Tomatidine]
[2]; incubation time 24 h
  Residual ASM Activity: 15.8%

## CN1CCN(CCCN2c3ccccc3Sc3ccc(C(F)(F)F)cc32)CC1 [Trifluoperazine]
[2]; incubation time 6 h
  Residual ASM Activity: 8.3%

## CN(C)CCCN1c2ccccc2Sc2ccc(C(F)(F)F)cc21 [Triflupromazine]
[2]; incubation time 0.5 h
  Residual ASM Activity: 29.5%

## CC(CN(C)C)CN1c2ccccc2CCc2ccccc21 (stereo not drawn) [Trimipramine]
[2]; incubation time 0.5 h
  Residual ASM Activity: 13.8%

## c1cc(CN2CCCCC2)cc(OCCCNc2nc3ccccc3s2)c1 [Zolantidine_(SKB41), Zolantidine]
[2]; incubation time 6 h
  Residual ASM Activity: 21.6%

## O=C(CCCN1CCC(O)(c2ccc(Cl)cc2)CC1)c1ccc(F)cc1 [haloperidol]
[2]
  residual aSMase activity after treatment: 86.1%
